Measurements taken from patent US4483867A, “Antifibrinolytically active derivatives of tranexamic acid” (KabiVitrum AB, priority 1981, dated 1984).
Where a name gives a salt, the structure may show the parent alone.

How the values were obtained:
[1] = In vitro test - hydrolysis in human plasma (half life); assay type: in vitro ADME; details: 37° C., 2.3·10^-3 M, trans form, hydrochloride salt, HPLC, UV 210 nm
From the text: (§1) In the biological tests described in sections A, B and C below, the test compounds were used in trans form and in the form of hydrochloride salt. The test results given in Tables 1 and 2 are average values.
(§2) The compounds of the present invention, which are esters of tranexamic acid, are converted to tranexamic acid in vivo either during the absorption through the gastro-intestinal wall or by enzymes present in the blood. In order to test the stability of compounds of the invention the half life in human plasma of a number of compounds of the invention was compared to the half life of the same ester in a phosphate buffer of the same pH. The half life, that is, the time within which the amount of unhydrolysed test compound is reduced by 50%, was calculated from the decrease of intact test compound with time. This decrease of intact test compound was monitored by UV-detection at 210 nm using high performance liquid chromatography (HPLC) in the reversed phase mode with mixtures of methanol and phosphate buffer as eluents. The stability in plasma was studied by addition of […] of plasma thermostated to 37° C. The concentration of the test compound in plasma amounted to 2.3·10^-3 M. The plasma samples were injected directly into the column after filtration. The half life in buffer solution were determined in the same way except that no filtration was needed.

[2] = tested on: fibrinolytic activity induced by porcine tissue activator; assay: Antifibrinolytic activity in chandler loop (inhibition of clot lysis induced by porcine tissue activator); assay type: biochemical, human blood; porcine tissue activator; details: for Percent inhibition of fibrinolytic activity induced by porcine tissue activator: 1 micromole/liter, human blood, 20 PU/ml porcine tissue activator, six hours, mean
Description: as §1
The antifibrinolytic properties of tranexamic acid and a number of compounds of the invention were tested in an artificial circulating blood system, the chandler loop (Chandler, A. B., In vitro thrombolytic coagulation of blood. A method for producing a thrombus. Lab.Invest. 7, 110, 1958.) Human blood was mixed with ^125 I-labelled fibrinogen, divided into 1.5 ml portions and filled into plastic tubings. After recalcification the loops were rotated for 24 hours during which ^125 I-labelled clots were formed. Fibrinolysis as measured with release of ^125 I-labelled fibrin degradation products from the clot, was initiated by adding 20 PU/ml of porcine tissue activator to the loops. Clot lysis was followed during six hours and the cumulative release of ^125 I FDP was plotted v.s. time of lysis. […] The effect on the clot lysis of compounds of the invention was tested in this system and compared to the inhibitory effect of tranexamic acid. No significant difference (p>0.05) between the antifibrinolytic effect of tranexamic acid and the tested compounds of the invention was found in this test system.

[3] = In vitro test - hydrolysis in phosphate buffer pH 7.5 (half life); assay type: physicochemical; details: trans form, hydrochloride salt, HPLC, UV 210 nm
From the text: as §1, §2

[4] = In vivo test - absorption in rats after oral administration (tranexamic acid recovered in urine); details: for Absorption after oral administration, in words: compared to tranexamic acid
Description: as §1
Rats were chosen to study the absorption after oral administration of compounds of the invention which are esters of tranexamic acid. Absorption of tranexamic acid itself is very poor in rats.
The determination of absorption in the rats was performed in the following way: Male rats in groups of three or four were given the test compound by gavage (1 mmol/kg-0.1 mmol/kg, 2 ml/kg). The urine was collected at the intervals 0-6, 6-24, 24-48 and 48-72 hours. At the end of each interval the cages were rinsed with 20 ml of distilled water, which also was collected and analysed. The urine sampls were then analysed for their content of tranexamic acid by a gaschromatographic method according to Wessman J., Stromberg S., Anal. Chem. 49 (1977) 369. The results are shown in table 1, where the total absorption is given as the molar amount of tranexamic acid which was recovered in the urine samples compared to the amount of administered test compound, also calculated as tranexamic acid.

[5] = normally, clinical use; cited from earlier work
[6] = large oral intake, about 3 to about 6 grams per 24 hours; cited from earlier work

CC(C)(C)C(=O)OCOC(=O)[C@H]1CC[C@H](CN)CC1 [Example 1, pivaloyloxymethyl trans-4-aminomethylcyclohexanecarboxylate hydrochloride]
half-life at 2300 µM [1]: 5 min
Percent inhibition of fibrinolytic activity induced by porcine tissue activator [2]: 19.3 ± 4.3%

CCOC(=O)OC(C)OC(=O)[C@H]1CC[C@H](CN)CC1 (stereo partly drawn) [Example 3, 1-(ethyloxycarbonyloxy)ethyl trans-4-aminomethylcyclohexanecarboxylate hydrochloride]
half-life at 2300 µM [3]: 90 h
half-life at 2300 µM [1]: 1.5 min
Percent inhibition of fibrinolytic activity induced by porcine tissue activator [2]: 23.4 ± 5.1%

CC(C)OC(=O)OC(C)OC(=O)[C@H]1CC[C@H](CN)CC1 (stereo partly drawn) [Example 4, 1-(isopropyloxycarbonyloxy)ethyl trans-4-aminomethylcyclohexanecarboxylate hydrochloride]
Absorption after oral administration, in words [4]: absorbed to a very high degree
Percent inhibition of fibrinolytic activity induced by porcine tissue activator [2]: 25.8 ± 5.5%

CC(=O)OC(C)OC(=O)[C@H]1CC[C@H](CN)CC1 (stereo partly drawn) [Example 5, 1-(acetyloxy) ethyl trans-4-aminomethylcyclohexanecarboxylate]
half-life at 2300 µM [1]: 9 min
Percent inhibition of fibrinolytic activity induced by porcine tissue activator [2]: 19.5 ± 4.7%

CC(C)C(=O)OCOC(=O)[C@H]1CC[C@H](CN)CC1 [Example 6, isobutyryloxymethyl trans-4-aminomethylcyclohexanecarboxylate]
half-life at 2300 µM [1]: 0.5 min
Percent inhibition of fibrinolytic activity induced by porcine tissue activator [2]: 32.4 ± 5.3%

CC(OC(=O)C(C)C)OC(=O)[C@H]1CC[C@H](CN)CC1 (stereo partly drawn) [Example 7, 1-(isobutyryloxy)ethyl trans-4-aminomethylcyclohexanecarboxylate]
Percent inhibition of fibrinolytic activity induced by porcine tissue activator [2]: 23.8 ± 5.7%

NC[C@H]1CC[C@H](C(=O)OCOC(=O)[C@H]2CC[C@H](CN)CC2)CC1 [Example 11, methandiol bis-(trans-4-aminomethylcyclohexanecarboxylate) dihydrochloride]
half-life at 2300 µM [3]: 26 h
half-life at 2300 µM [1]: 1.5 min

CC(OC(=O)[C@H]1CC[C@H](CN)CC1)OC(=O)[C@H]1CC[C@H](CN)CC1 [Example 13, 1,1-Ethandiol bis-(trans-4-aminomethylcyclohexanecarboxylate) dihydrochloride]
half-life at 2300 µM [3]: 70 h
half-life at 2300 µM [1]: 11 min

CN(C)C(=O)C(OC(=O)[C@H]1CC[C@H](CN)CC1)OC(=O)[C@H]1CC[C@H](CN)CC1 [Example 16, 2,2-dihydroxy-N,N-dimethylacetamide bis-(trans-4-aminomethylcyclohexanecarboxylate)]
Percent inhibition of fibrinolytic activity induced by porcine tissue activator [2]: 32.2 ± 4.7%

NC[C@H]1CC[C@H](C(=O)O)CC1 [Tranexamic acid, trans-4-aminomethylcyclohexanecarboxylic acid]
Absorption after oral administration, in words [4]: very poor
dose excreted at 72 h ([4]; rat, po, male rats, by gavage, 1 mmol/kg-0.1 mmol/kg, 2 ml/kg, tranexamic acid recovered in urine 0-72 hours vs. amount administered, trans form, hydrochloride salt, read-out: Absorption Mole % (average values of four tests)): 11 ± 1.4%
Percent inhibition of fibrinolytic activity induced by porcine tissue activator [2]: 25.6 ± 3.9%
Antifibrinolytic effect / inhibition of clot lysis, in words ([2]; chandler loop): clot lysis was inhibited in a dose dependent manner
Absorption of administered tranexamic acid, oral route [5]: 35-40%
Undesired side effects, in words [6]: causes in some patients undesired side effects in the gastro-intestinal tract
